A word on the melting point: it is the temperature of the solid-liquid transition. Usually Ki stands for the equilibrium dissociation constant of an inhibitor or competing ligand from its target. Lower therefore signals a stronger hold on the target.

This is an account of results in patent US6492407B2, “Pharmaceutical compositions containing triazolones and methods of treating neurodegenerative disease using triazolones” (Boehringer Imgelheim Pharma KG, priority 1998, dated 2002).

One data set relates to AMPA receptor. Nature of the data set: Inhibition of the cainate-induced signal at the AMPA receptor, electrophysiology on neuronal cells (patch-clamp method). The data set is classed as cell-based. The note with it: test concentration of 100 μM. The protocol: The testing was carried out at a test concentration of 100 μM.
Data set [1] has as its target Na+ channel site 2 binding site. Nature of the data set: Affinity to the "Na+ channel site 2" binding site (method of G. B. Brown). The settings on record: testing typically at a test concentration of 10 μM.

Where a name gives a salt, the structure may show the parent alone.

In turn, `Cc1ccccc1-n1nc(-c2ccccc2)n(CCN(C)C)c1=O` (as salt: HCl) [Example 27, 4-(2-N,N-dimethyl-aminoethyl)-2-(2-methyl-phenyl)-5-phenyl-3H-1,2,4-triazol-3-one] showed a melting point of 204 to 207 °C.
Consider `Cc1cccc(-n2[nH]c(-c3ccccc3)nc2=O)c1` (as salt: HCl) [Example 46, 2-(3-methyl-phenyl)-5-phenyl-3H-1,2,4-triazol-3-one], for which the melting point lay in the range of 207 to 208 °C.
The same measure, in the same setting: the value for `CN(C)CCn1c(-c2ccccc2)nn(-c2cccc(F)c2)c1=O` (as salt: HCl) [Example 49, 2-(3-fluorophenyl)-4-(2-N,N-dimethyl-aminoethyl)-5-phenyl-3H-1,2,4-triazol-3-one] was 201 to 203 °C.
In turn, `Cc1cccc(-n2nc(-c3ccccc3)n(CCN(C)C)c2=O)c1` (as salt: HCl) [Example 53, 4-(2-N,N-dimethyl-amino-ethyl)-2-(3-methyl-phenyl)-5-phenyl-3H-1,2,4-triazol-3-one] displayed a melting point of 204 to 206 °C.
With `Cc1ccccc1-n1[nH]c(-c2ccccc2)nc1=O` [Example 1, 2-(2-methyl-phenyl)-5-phenyl-3H-1,2,4-triazol-3-one], the melting point lay in the range of 208 to 211 °C. The “AMPA Inh. [%] (inhibition of the cainate-induced signal at the AMPA receptor)” value in the data set on AMPA receptor is 58%.
Taken in the same sequence, the figures for `COc1cccc(-n2nc(-c3ccccc3)n(C)c2=O)c1` [Example 5, 2-(3-methoxy-phenyl)-4-methyl-5-phenyl-3H-1,2,4-triazol-3-one] were 81 to 83 °C and 58%.
`Cn1c(-c2ccccc2)nn(-c2ccccc2Br)c1=O` [Example 8, 2-(2-bromo-phenyl)-4-methyl-5-phenyl-3H-1,2,4-triazol-3-one] showed a melting point of 80 to 82 °C. The “AMPA Inh. [%] (inhibition of the cainate-induced signal at the AMPA receptor)” value with AMPA receptor is 87%.
Taken in the same sequence, the figures for `COc1ccc(-c2nn(-c3ccccc3)c(=O)n2C)cc1` [Example 22, 5-(4-methoxy-phenyl)-4-methyl-2-phenyl-3H-1,2,4-triazol-3-one] were 118 °C and 50%.
On to `COc1ccccc1-c1nn(-c2ccccc2)c(=O)n1C` [Example 25, 5-(2-methoxy-phenyl)-4-methyl-2-phenyl-3H-1,2,4-triazol-3-one], for which the melting point was 117 °C. The “AMPA Inh. [%] (inhibition of the cainate-induced signal at the AMPA receptor)” value with AMPA receptor is on record as 72%.
For `Cc1ccccc1-n1nc(-c2ccccc2)n(CCN(C)C)c1=O` [Example 27, 4-(2-N,N-dimethyl-aminoethyl)-2-(2-methyl-phenyl)-5-phenyl-3H-1,2,4-triazol-3-one], in the data set on AMPA receptor, the “AMPA Inh. [%] (inhibition of the cainate-induced signal at the AMPA receptor)” value amounted to 64%. In data set [1], this molecule showed a Ki of 5.41 µM.
`COc1ccccc1-n1[nH]c(-c2ccccc2)nc1=O` [Example 32, 2-(2-methoxy-phenyl)-5-phenyl-3H-1,2,4-triazol-3-one] gave a melting point of 275 to 277 °C. Besides, in the data set on AMPA receptor, the “AMPA Inh. [%] (inhibition of the cainate-induced signal at the AMPA receptor)” value was 73%.
`O=c1nc(-c2ccccc2)[nH]n1-c1ccccc1Cl` [Example 33, 2-(2-chloro-phenyl)-5-phenyl-3H-1,2,4-triazol-3-one] yielded a melting point of 257 °C. The “AMPA Inh. [%] (inhibition of the cainate-induced signal at the AMPA receptor)” value in the data set with AMPA receptor was 97%.
`CN(C)CCn1c(-c2ccccc2)nn(-c2cccc(Cl)c2)c1=O` [Example 35, 2-(3-chloro-phenyl)-4-(2-N,N-dimethylamino-ethyl)-5-phenyl-3H-1,2,4-triazol-3-one] yielded an inhibition constant (Ki) in data set [1] of 2.08 µM.
For the molecule `O=c1nc(-c2ccccc2)[nH]n1-c1ccccc1F` [Example 37, 2-(2-fluoro-phenyl)-5-phenyl-3H-1,2,4-triazol-3-one], the melting point was 238 to 240 °C. Also, the “AMPA Inh. [%] (inhibition of the cainate-induced signal at the AMPA receptor)” value with AMPA receptor is recorded as 86%.
Taken in the same sequence, the figures for `Cn1c(-c2ccccc2)nn(-c2cccc(F)c2)c1=O` [Example 42, 2-(3-fluoro-phenyl)-4-methyl-5-phenyl-3H-1,2,4-triazol-3-one] were 81 °C and 96%.
Taken in the same sequence, the figures for `Cn1c(-c2ccccc2)nn(-c2ccccc2F)c1=O` [Example 44, 2-(2-fluoro-phenyl)-4-methyl-5-phenyl-3H-1,2,4-triazol-3-one] were 65 to 66 °C and 76%.
On to `Cc1cccc(-n2[nH]c(-c3ccccc3)nc2=O)c1` [Example 46, 2-(3-methyl-phenyl)-5-phenyl-3H-1,2,4-triazol-3-one], for which the “AMPA Inh. [%] (inhibition of the cainate-induced signal at the AMPA receptor)” value in the data set with AMPA receptor came to 54%.
The molecule `CCc1ccccc1-n1[nH]c(-c2ccccc2)nc1=O` [Example 48, 2-(2-ethyl-phenyl)-5-phenyl-3H-1,2,4-triazol-3-one] registered a melting point of 209 to 210 °C. In the data set on AMPA receptor, the “AMPA Inh. [%] (inhibition of the cainate-induced signal at the AMPA receptor)” value worked out at 63%.
In data set [1], `CN(C)CCn1c(-c2ccccc2)nn(-c2cccc(F)c2)c1=O` [Example 49, 2-(3-fluorophenyl)-4-(2-N,N-dimethyl-aminoethyl)-5-phenyl-3H-1,2,4-triazol-3-one] returned an inhibition constant Ki of 6.58 µM.
`Cc1cccc(-n2nc(-c3ccccc3)n(C)c2=O)c1` [Example 50, 4-methyl-2-(3-methyl-phenyl)-5-phenyl-3H-1,2,4-triazol-3-one] came in with a melting point of 91 to 92 °C. The “AMPA Inh. [%] (inhibition of the cainate-induced signal at the AMPA receptor)” value in the data set with AMPA receptor is reported as 71%.
For `Cc1cccc(-n2nc(-c3ccccc3)n(CCN(C)C)c2=O)c1` [Example 53, 4-(2-N,N-dimethyl-amino-ethyl)-2-(3-methyl-phenyl)-5-phenyl-3H-1,2,4-triazol-3-one], in data set [1], the inhibition constant (Ki) was 5.78 µM.
`Cn1c(-c2ccccc2)nn(-c2ccccc2Cl)c1=O` [Example 55, 2-(2-chloro-phenyl)-4-methyl-5-phenyl-3H-1,2,4-triazol-3-one] yielded a melting point of 94 to 96 °C. Further, the “AMPA Inh. [%] (inhibition of the cainate-induced signal at the AMPA receptor)” value with AMPA receptor worked out at 80%.
`O=c1nc(-c2ccccc2)[nH]n1-c1ccccc1Br` [Example 56, 2-(2-bromo-phenyl)-5-phenyl-3H-1,2,4-triazol-3-one] gave a melting point of 246 to 264 °C. In addition, the “AMPA Inh. [%] (inhibition of the cainate-induced signal at the AMPA receptor)” value in the data set on AMPA receptor is 96%.
